Laboratory results: US20260207585A1, “METHODS AND COMPOSITIONS FOR THE TREATMENT OF PARKINSON'S DISEASE, HUNTINGTON'S DISEASE, AMYOTROPHIC LATERAL SCLEROSIS, AND LEARNING DISORDERS” (Cedars-Sinai Medical Center, priority 2022, published 2026)
Where two headings read alike, the source gives them in different places.

What was measured:
DNMT3a = DNMT3a (Homo sapiens, UniProt Q9Y6K1); test: Methyltransferase inhibition panel: DNMT3a; assay type: biochemical; conditions: NT1721 20 μM; substrate Lambda DNA 0.0075 mg/mL
Experimental: (§1) The ability of ETP69 to inhibit methyltransferases was tested.

EZH2 Complex = EZH2 Complex (Homo sapiens, UniProt Q15910); test: Methyltransferase inhibition panel: EZH2 Complex; assay type: biochemical; conditions: NT1721 20 μM; substrate Core Histone 0.05 mg/mL
Experimental: as §1

G9a = molecular target: T1, G9a (Homo sapiens, UniProt Q96KQ7); test: Methyltransferase inhibition panel: G9a; assay type: biochemical
T1 sequence (Q96KQ7 1-1210): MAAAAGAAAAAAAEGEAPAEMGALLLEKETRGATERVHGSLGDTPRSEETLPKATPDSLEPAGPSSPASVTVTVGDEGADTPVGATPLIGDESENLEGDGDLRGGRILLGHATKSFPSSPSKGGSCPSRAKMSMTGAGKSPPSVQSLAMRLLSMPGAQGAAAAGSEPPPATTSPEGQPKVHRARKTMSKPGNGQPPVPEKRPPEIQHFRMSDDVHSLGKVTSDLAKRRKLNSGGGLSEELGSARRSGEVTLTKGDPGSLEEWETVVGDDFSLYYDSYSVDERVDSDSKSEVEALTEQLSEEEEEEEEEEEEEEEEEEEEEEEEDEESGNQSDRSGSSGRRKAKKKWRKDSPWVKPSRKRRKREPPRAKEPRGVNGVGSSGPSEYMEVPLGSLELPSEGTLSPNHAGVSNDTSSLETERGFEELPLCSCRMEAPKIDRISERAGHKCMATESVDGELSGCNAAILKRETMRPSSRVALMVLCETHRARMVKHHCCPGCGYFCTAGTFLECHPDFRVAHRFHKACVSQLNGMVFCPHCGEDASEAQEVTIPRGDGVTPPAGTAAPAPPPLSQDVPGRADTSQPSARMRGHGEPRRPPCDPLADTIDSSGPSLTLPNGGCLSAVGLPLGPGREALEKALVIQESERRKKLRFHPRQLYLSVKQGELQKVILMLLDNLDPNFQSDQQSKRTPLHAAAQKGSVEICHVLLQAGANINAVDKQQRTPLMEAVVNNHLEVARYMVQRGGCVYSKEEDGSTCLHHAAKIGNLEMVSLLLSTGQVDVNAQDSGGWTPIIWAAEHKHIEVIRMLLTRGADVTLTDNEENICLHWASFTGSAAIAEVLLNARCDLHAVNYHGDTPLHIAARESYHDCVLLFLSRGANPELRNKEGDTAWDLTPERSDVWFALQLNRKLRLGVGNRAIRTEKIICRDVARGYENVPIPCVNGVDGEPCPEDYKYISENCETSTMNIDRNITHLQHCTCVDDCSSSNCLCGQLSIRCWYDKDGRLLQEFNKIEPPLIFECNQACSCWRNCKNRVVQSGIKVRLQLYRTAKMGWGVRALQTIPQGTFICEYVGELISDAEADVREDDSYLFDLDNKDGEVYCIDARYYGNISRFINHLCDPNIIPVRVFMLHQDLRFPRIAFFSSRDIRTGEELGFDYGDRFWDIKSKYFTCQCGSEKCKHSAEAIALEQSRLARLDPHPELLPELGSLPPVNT
Experimental: as §1

AD+ mice = test: Open Field Barnes Maze test; assay type: in vivo; conditions: AD+ mice vs AD+ mice treated with DMSO
Experimental: The effects of single and repeated ETP69 injections in mice were tested. The experimental timeline is depicted in FIG. 5. Three parallel injection conditions were tested: a single ETP69 condition, a boosted ETP69 injection, and repeated ETP69 injections. The single injection mice received one injection of ETP69 or DMSO at Day 0. The mice that received a boosted injection received one injection of ETP69 or DMSO at day 0 and one injection at day 9. The mice that received repeated injections received 11 injections of ETP69 or DMSO at day 0 or day 9. Both wildtype and AD model (APP/PS1-transgenic) mice were tested.
The results of the Open Field Barnes Maze test indicate hippocampal-based spatial memory. FIG. 7A depicts a schematic of the Barnes Maze Test. […] The results of the fear conditioning test indicate spatial memory.

[1] = system: ionized calcium-binding adaptor molecule 1 (Iba-1); test: Iba-1 immunoreactivity (microgliosis) in cerebral cortex; assay type: in vivo; conditions: neurodegenerative mice
Experimental: The effects of ETP69 on cerebral H3K9me3 levels was tested in old mice, in both a neurodegenerative model and WT siblings. The levels of brain H3K9me3 at days 4 (short-term) and 15 (long-term) following i.p. ETP69 injection (S regimen cohorts) were measured. […] These findings indicate that a single dose of ETP69 is sufficient to sustainably reduce H3K9me3 in the brains of old WT and neurodegenerative mice. Consistent with the observations in 18-month-old mice, ETP69 mitigated neuroinflammation, including by reduced ionized calcium-binding adaptor molecule 1 (Iba-1)^+ microgliosis in neurodegenerative mice (40%, p=0.0021; FIG. 16D).

Sequence of DNMT3a (Q9Y6K1 whole entry, looked up): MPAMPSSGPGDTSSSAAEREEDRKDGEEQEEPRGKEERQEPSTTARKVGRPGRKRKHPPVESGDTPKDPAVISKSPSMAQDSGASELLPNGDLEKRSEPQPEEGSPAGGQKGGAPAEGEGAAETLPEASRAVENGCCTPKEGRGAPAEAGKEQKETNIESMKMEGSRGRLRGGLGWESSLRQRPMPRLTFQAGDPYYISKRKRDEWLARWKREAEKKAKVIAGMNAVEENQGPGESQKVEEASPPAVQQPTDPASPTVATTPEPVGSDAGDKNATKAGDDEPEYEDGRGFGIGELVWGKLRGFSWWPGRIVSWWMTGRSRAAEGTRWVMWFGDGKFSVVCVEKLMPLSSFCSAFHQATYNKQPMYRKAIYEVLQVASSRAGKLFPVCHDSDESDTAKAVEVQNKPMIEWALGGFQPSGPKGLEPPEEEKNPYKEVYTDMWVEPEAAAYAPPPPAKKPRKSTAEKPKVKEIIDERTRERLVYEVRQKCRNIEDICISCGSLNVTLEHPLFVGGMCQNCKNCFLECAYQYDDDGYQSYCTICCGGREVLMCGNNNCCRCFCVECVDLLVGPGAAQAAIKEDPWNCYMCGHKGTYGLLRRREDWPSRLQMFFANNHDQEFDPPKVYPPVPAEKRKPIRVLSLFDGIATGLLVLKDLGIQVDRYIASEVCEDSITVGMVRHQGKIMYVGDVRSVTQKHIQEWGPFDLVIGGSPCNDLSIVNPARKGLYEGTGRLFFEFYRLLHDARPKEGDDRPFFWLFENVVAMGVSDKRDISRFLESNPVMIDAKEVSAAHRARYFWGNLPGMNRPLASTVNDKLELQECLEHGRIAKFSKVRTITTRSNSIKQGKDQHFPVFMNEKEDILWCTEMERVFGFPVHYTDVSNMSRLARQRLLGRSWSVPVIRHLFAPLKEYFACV
Sequence of EZH2 Complex (Q15910 whole entry): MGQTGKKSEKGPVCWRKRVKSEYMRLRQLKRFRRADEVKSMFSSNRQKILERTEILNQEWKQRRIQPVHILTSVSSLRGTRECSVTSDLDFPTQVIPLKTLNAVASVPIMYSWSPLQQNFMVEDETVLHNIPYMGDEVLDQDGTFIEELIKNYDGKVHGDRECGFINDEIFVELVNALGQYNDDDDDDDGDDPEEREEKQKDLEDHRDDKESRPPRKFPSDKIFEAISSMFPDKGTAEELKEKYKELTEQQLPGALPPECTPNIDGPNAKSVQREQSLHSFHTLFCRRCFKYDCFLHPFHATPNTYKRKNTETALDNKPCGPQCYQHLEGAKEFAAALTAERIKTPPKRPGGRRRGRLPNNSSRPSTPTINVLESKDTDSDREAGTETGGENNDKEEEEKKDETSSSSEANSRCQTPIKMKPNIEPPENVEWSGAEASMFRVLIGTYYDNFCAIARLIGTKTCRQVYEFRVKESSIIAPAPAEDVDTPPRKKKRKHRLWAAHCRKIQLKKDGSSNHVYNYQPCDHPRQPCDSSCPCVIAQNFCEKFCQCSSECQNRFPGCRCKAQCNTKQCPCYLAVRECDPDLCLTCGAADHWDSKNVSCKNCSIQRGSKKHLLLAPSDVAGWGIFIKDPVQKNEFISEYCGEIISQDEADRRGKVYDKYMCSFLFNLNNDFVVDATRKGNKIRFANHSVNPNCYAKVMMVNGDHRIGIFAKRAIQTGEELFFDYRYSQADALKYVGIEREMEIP
Sequence of EZH2 Complex (O75530 whole entry partner): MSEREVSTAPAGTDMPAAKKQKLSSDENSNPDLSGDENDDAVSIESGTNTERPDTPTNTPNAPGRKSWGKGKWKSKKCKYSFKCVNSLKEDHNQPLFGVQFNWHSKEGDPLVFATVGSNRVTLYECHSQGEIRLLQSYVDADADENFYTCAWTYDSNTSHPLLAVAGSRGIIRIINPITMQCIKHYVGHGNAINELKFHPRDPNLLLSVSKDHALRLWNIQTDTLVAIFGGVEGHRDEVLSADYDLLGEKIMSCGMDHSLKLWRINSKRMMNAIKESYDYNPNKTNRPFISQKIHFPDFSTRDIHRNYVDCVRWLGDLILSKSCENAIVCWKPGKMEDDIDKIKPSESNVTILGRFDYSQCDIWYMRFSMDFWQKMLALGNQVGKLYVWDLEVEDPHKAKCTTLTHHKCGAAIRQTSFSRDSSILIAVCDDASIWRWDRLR
Sequence of EZH2 Complex (Q15022 whole entry partner): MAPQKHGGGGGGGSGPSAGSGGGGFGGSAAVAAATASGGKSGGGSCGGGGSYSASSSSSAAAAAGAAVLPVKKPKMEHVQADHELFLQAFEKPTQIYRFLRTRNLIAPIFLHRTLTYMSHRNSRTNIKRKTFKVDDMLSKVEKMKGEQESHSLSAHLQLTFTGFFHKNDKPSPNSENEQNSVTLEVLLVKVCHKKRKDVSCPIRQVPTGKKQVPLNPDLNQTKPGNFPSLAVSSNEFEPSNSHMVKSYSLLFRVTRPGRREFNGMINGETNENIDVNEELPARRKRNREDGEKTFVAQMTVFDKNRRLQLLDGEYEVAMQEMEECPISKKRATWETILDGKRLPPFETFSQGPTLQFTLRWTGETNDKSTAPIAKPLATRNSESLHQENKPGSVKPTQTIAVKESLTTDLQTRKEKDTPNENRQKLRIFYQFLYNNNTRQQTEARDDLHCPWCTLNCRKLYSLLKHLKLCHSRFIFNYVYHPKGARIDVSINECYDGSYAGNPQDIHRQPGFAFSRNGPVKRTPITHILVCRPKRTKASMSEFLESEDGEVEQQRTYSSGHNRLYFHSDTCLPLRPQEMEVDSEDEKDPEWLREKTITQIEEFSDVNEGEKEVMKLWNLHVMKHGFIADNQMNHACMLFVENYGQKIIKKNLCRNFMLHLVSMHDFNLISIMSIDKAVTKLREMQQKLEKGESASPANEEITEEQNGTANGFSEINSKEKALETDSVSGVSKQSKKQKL
Sequence of EZH2 Complex (Q09028 whole entry partner): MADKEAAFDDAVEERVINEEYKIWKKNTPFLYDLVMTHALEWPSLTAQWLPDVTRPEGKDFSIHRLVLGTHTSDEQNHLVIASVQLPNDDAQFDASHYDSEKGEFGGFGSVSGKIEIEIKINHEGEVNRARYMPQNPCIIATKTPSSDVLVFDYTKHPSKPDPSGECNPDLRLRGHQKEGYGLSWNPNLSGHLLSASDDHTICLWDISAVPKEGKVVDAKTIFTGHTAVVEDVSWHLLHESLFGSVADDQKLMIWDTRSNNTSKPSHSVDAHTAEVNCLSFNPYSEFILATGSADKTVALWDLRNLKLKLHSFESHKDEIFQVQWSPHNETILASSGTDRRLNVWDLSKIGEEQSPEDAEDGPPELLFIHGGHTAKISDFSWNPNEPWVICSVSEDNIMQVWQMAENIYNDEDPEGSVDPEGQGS
Sequence of EZH2 Complex (Q6ZN18 whole entry partner): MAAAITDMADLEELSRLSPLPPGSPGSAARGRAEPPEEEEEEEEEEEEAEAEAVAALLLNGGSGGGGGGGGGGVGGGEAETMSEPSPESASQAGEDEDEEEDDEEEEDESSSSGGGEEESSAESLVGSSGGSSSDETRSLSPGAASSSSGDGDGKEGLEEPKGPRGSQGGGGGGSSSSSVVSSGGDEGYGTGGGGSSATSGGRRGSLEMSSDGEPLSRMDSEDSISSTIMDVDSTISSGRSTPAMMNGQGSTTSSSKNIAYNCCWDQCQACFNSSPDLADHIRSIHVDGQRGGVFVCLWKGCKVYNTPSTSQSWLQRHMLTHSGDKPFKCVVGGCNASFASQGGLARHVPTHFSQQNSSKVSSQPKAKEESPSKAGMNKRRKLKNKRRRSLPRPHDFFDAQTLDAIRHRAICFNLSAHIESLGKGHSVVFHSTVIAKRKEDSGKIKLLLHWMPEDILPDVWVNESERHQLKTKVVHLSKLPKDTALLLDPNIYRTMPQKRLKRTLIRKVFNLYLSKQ

SMILES: CN1C(=O)[C@@]23C[C@](C)(C#N)[C@H](c4ccc5c(c4)OCO5)N2C(=O)[C@]1(C)SS3 (racemic) [ETP69, Rac-(3S,6S,7S,8aS)-6-(benzo[d][1,3]dioxol-5-yl)-2,3,7-trimethyl-1,4-dioxohexahydro-6H-3,8a-epidithiopyrrolo[1,2-a]pyrazine-7-carbonitrile]
- Enzyme % Activity (relative to DMSO controls) Data 1 (DNMT3a): 76.81%
- Enzyme % Activity (relative to DMSO controls) Data 2 (DNMT3a): 78.12%
- Enzyme % Activity (relative to DMSO controls) Data 1 (EZH2 Complex): 98.37%
- Enzyme % Activity (relative to DMSO controls) Data 2 (EZH2 Complex): 97.85%
- remaining activity at 2.5 µM (G9a; read-out: Enzyme % Activity (relative to DMSO controls) Data 1): 40.9%
- remaining activity at 2.5 µM (G9a; read-out: Enzyme % Activity (relative to DMSO controls) Data 2): 38.7%
- inhibition relative to DMSO controls (G9a; summary of Table 1): at least 7500
- memory retention (AD+ mice): improvement
- reduction of Iba-1+ microgliosis [1]: 40%
